Here are results for ten compounds from US7816522B2, “Triazolone derivatives” (Eisai Co., Ltd., priority 2006, dated 2010).

The test has as its target T1, human clotting factor VIIa (Homo sapiens, UniProt P08709).
T1 construct: a human clotting factor VIIa (hereinafter, “Factor VIIa”) purified sample; purchased Enzyme Research Laboratories HFVIIa
Kind of test: Inhibitory activity against clotting factor VIIa (chromogenic substrate Spectrozyme FVIIa, TF/Factor VIIa enzyme solution). The test is classed as biochemical. To be noted: human Factor VIIa 5 nmol/L with human TF 10 nmol/L, room temperature 40 minutes, 405 nm. On the procedure: [Inhibitory Activity Against Clotting Factor VIIa]
Dimethylsulfoxide (DMSO) solutions were prepared with compounds of the invention at concentration of 10 mmol/L (10 mmol/L compound solutions).
One packet of tris-hydroxymethylaminomethane-preset (hereinafter referred to as “Tris preset”) (Product of Sigma Corp., Catalog No. T8293), 8.8 g of sodium chloride (NaCl) and 1 g of bovine serum albumin (hereinafter abbreviated as “BSA”) were dissolved in 1 L of water to prepare a Tris-BSA buffer (100 mmol/L Tris, 0.15 mol/L NaCl, 0.1% BSA, pH 7.4).
This Tris-BSA buffer (180 μL) was added to the aforementioned 10 mmol/L compound solution (20 μL). A 10-fold dilution series was prepared for this mixture using the aforementioned Tris-BSA buffer, and solutions with the compound at concentrations of 1.0 mmol/L, 100, 10, 1, 0.1, 0.01 and 0.001 μmol/L were prepared (1.0 mmol-0.001 μmol/L compound solutions). As a control, a solution was prepared by 10-fold dilution of DMSO with the Tris-BSA buffer (hereinafter referred to as “control 10% solution”).
After dissolving one packet of Tris preset, NaCl (8.8 g) and BSA (1 g) in water (about 900 mL), there were added 1 mol/L aqueous calcium chloride (CaCl2) (15 mL) and 1 mg/mL aqueous cephalin (30 mL), and the total volume was brought to 1 L by adding water. To this solution there was added a human tissue factor (hereinafter, “TF”) sample (product of Calbiochem, Catalog No. 612151) (450 μg) to a TF sample concentration of 10 nmol/L, and then a human clotting factor VIIa (hereinafter, “Factor VIIa”) purified sample (product of Enzyme Research Laboratories, Catalog No. HFVIIa) (250 μg) was added to a Factor VIIa purified sample concentration of 5 nmol/L, to prepare an enzyme solution (100 mmol/L Tris-HCl, 0.15 mol/L NaCl, 15 mmol/L CaCl2, 30 μg/mL cephalin, 1 mg/mL BSA, 10 nmol/L TF, 5 nmol/L Factor VIIa).
To 110 μL of this enzyme solution there was added 15 μL of each of the 1.0 mmol-0.001 μmol/L compound solutions, and then 25 μL of a 1.0 mmol/L synthetic chromogenic substrate solution (Spectrozyme FVIIa, product of American Diagnostica, Catalog No. 217L) was added and the mixture was allowed to stand at room temperature for 40 minutes. Next, the amount of 4-nitroanilide released into the solution was quantitated by spectrophotometry (405 nm).
A control measurement was conducted in the same manner, using the control 10% solution instead of the compound solution.
This measurement yielded the enzyme reaction inhibition in the presence of 100 μmol/L to 0.1 nmol/L of each compound of the invention.
The enzyme reaction inhibition at each compound concentration was subjected to non-linear regression analysis, and the IC50 value for inhibitory activity of each compound against clotting factor VIIa was calculated.

T1 sequence (P08709 213-466 limits assumed): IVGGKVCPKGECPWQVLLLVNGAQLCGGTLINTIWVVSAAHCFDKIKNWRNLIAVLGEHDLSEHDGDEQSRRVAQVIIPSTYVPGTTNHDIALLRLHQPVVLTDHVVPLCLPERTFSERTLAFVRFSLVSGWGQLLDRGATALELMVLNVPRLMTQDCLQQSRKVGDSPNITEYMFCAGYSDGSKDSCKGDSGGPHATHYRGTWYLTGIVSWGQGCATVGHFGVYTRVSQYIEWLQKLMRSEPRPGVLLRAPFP
T1 sequence (P08709 61-212 limits assumed): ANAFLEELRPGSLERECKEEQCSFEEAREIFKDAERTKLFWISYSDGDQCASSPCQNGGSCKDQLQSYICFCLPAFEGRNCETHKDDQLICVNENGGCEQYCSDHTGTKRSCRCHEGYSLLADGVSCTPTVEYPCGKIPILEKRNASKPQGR
T1 sequence (P13726 33-295 partner): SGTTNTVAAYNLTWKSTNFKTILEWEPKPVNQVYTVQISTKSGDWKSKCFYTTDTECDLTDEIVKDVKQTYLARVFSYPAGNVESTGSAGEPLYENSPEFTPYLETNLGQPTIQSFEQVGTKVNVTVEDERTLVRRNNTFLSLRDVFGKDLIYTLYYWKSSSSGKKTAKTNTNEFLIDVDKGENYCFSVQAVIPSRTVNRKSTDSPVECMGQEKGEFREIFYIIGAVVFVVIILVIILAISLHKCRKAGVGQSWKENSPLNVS

`C=Cc1cc(O[C@H]2CCOC2)cc(C(Nc2ccc(C(=N)N)cc2)c2nn(-c3ncccn3)c(=O)[nH]2)c1` (mixture of isomers) [Example 45(1), 4-[((R) and (S)-(5-oxo-1-pyrimidin-2-yl-4,5-dihydro-1H-[1,2,4]triazol-3-yl)-{3-[(S)-(tetrahydrofuran-3-yl)oxy]-5-vinylphenyl}methyl)amino]benzamidine acetate] returned an IC50 of 1.3 nM.

`C#Cc1cc(O[C@H]2CCOC2)cc(C(Nc2ccc(C(=N)N)cc2)c2nn(-c3ncccn3)c(=O)[nH]2)c1` (mixture of isomers) [Example 45(2), 4-[((R) and (S)-{3-ethynyl-5-[(S)-(tetrahydrofuran-3-yl)oxy]phenyl}-(5-oxo-1-pyrimidin-2-yl-4,5-dihydro-1H-[1,2,4]triazol-3-yl)methyl)amino]benzamidine acetate] yielded an IC50 of 1.5 nM. With `C=Cc1cc(OCCO)cc(C(Nc2ccc(C(=N)N)cc2)c2nn(-c3ncccn3)c(=O)[nH]2)c1` (racemic) [Example 46, (R) and (S)-4-({[3-(2-hydroxyethoxy)-5-vinylphenyl]-(5-oxo-1-pyrimidin-2-yl-4,5-dihydro-1H-[1,2,4]triazol-3-yl)methyl}amino)benzamidine acetate] the figure was 3.8 nM. The same measure for `C=Cc1cc(O)cc(C(Nc2ccc(C(=N)N)cc2)c2nn(-c3ncccn3)c(=O)[nH]2)c1` (racemic) [Example 47, 4-{[(3-hydroxy-5-vinylphenyl)-(5-oxo-1-pyrimidin-2-yl-4,5-dihydro-1H-[1,2,4]triazol-3-yl)methyl]amino}benzamidine]: 8.9 nM; for `COc1cc(OCCF)c(F)c(C(Nc2ccc(C(=N)N)cc2)c2nn(-c3cccnc3N)c(=O)[nH]2)c1` (racemic) [Example 50, (R) and (S)-4-({[1-(2-aminopyridin-3-yl)-5-oxo-4,5-dihydro-1H-[1,2,4]triazol-3-yl]-[2-fluoro-3-(2-fluoroethoxy)-5-methoxyphenyl]methyl}amino)benzamidine diacetate]: 3.2 nM; for `COc1cc(C(Nc2ccc(C(=N)N)cc2)c2nn(-c3ncccc3N)c(=O)[nH]2)c(F)c2c1OCC2` (racemic) [Example 52, (R) and (S)-4-({[1-(3-aminopyridin-2-yl)-5-oxo-4,5-dihydro-1H-[1,2,4]triazol-3-yl]-(4-fluoro-7-methoxy-2,3-dihydrobenzofuran-5-yl)methyl}amino)benzamidine diacetate]: 5.2 nM. The same measure for `COc1cc(C(Nc2ccc(C(=N)N)cc2)c2nn(-c3ncccn3)c(=O)[nH]2)ccc1OCF` (racemic) [Example 53, (R) and (S)-4-{[(4-fluoromethoxy-3-methoxyphenyl)-(5-oxo-1-pyrimidin-2-yl-4,5-dihydro-1H-[1,2,4]triazol-3-yl)methyl]amino}benzamidine acetate]: 10.6 nM.

Regarding `COc1cc(C(Nc2ccc(C(=N)N)cc2)c2nn(-c3ncccn3)c(=O)[nH]2)cc(OC)n1` (racemic) [Example 54, (R) and (S)-4-{[(2,6-dimethoxypyridin-4-yl)-(5-oxo-1-pyrimidin-2-yl-4,5-dihydro-1H-[1,2,4]triazol-3-yl)methyl]amino}benzamidine acetate], inhibition was half-maximal at 18.7 nM (IC50). With `COc1cc(C(Nc2ccc(C(=N)N)cc2)c2nn(-c3ncccc3N)c(=O)[nH]2)cc(OC)n1` (racemic) [Example 55, (R) and (S)-4-({[1-(3-aminopyridin-2-yl)-5-oxo-4,5-dihydro-1H-[1,2,4]triazol-3-yl]-(2,6-dimethoxypyridin-4-yl)methyl}amino)benzamidine acetate] the figure was 10.3 nM; with `COc1cc(C(Nc2ccc(C(=N)N)cc2)c2nn(-c3ncccc3F)c(=O)[nH]2)cc(OC)n1` (racemic) [Example 56, (R) and (S)-4-{[(2,6-dimethoxypyridin-4-yl)-[1-(3-fluoropyridin-2-yl)-5-oxo-4,5-dihydro-1H-[1,2,4]triazol-3-yl)methyl]amino}benzamidine acetate], 11.2 nM.

One may read the IC50 as the concentration that gives 50% inhibition.
